Assays:
[1] = system: SD rats; experiment: Sensory block, hot plate paw withdrawal time, non-anesthetic analgesic effect of PEG-bupivacaine conjugate (Example 30); type: in vivo, rat; settings: for hot plate paw withdrawal time: conjugate 10/11/12 at 32/24/48 mg/kg (as bupivacaine)
Protocol: Male Sprague-Dawley rats are used in the study, about 230-250 g when accepted, and acclimated for at least 7 days prior to the experiment. Two rats are raised in each cage and fed freely with feed and water. The environmental conditions of the breeding room are 23±2° C., and the relative humidity is 40% to 70%, alternating 12 hours of light and dark. […] The qualified rats are randomly divided into 4 groups, 4 rats in each group, which are labeled as groups G1, G2, G3, and G4, respectively. Administration by direct injection in the sciatic nerve is adopted, and with the rat's back facing up, the drug is injected around the right sciatic nerve trunk between the right hip and the right thigh.
(§1) Sensory block (hot plate paw withdrawal time): The sensory block of the rat is examined by a hot plate method, and the hot plate is heated to (56±1)° C., and one of the hind paws of the rat is placed on the hot plate. The other hind paw is in the laboratory room temperature condition, and the tested paw withdrawal time is observed and recorded. The average value of two to three times measured is recorded as a pain threshold. In order to avoid the damage of the experimental animal body, if the rat has no paw withdrawal in the hot plate experiment for more than 15 s, the rat should be removed from the hot plate, and the experimental result is recorded as 15 s. The time point for determining the paw withdrawal time of the hot plate is before administration, and 0.5 h, 1 h, 2 h, 4 h, 6 h, 8 h, 10 h, 12 h, and 24 h after administration.

[2] = system: SD rats; experiment: Hot plate paw withdrawal time, rat sciatica model, intervertebral disc compression (SNL) (Example 32); type: in vivo
From the text: Intervertebral disc compression (SNL): This model is a pathological form that simulates clinical disc herniation. The specific method is to remove the autogenous caudal intervertebral disc tissue (annulus fibrosus and nucleus pulposus) form the rats and place the caudal intervertebral disc tissue between the proximal nerve root of the L5 dorsal root ganglion and the lower vertebral body to directly compress the L5 nerve root, wherein damage to the L5 nerve root or dorsal root ganglion should be avoided during the operation. 3 to 15 days after the model is successful, rats develop significant hyperalgesia, so the administration time we chose is between 3 days and 15 days.
Qualified rats are randomly divided into 5 groups, 6 rats in each group, which are labeled as groups G1, G2, G3, G4 and G5, respectively. Administration by intramuscular injection around sciatic nerve is adopted, and the grouping information of the experimental animals is shown in Table 11.
as §1, with “the hot plate, the other hind” for “the hot plate. The other hind”, “s, the paws should be” for “s, the rat should be”, “determining the withdrawal time” for “determining the paw withdrawal time”, “8 h, 12 h,” for “8 h, 10 h, 12 h,”

[3] = system: SD rats; experiment: Motor block four-level score, rat plantar incision model (Example 31); type: in vivo; parameters: key to motor function score: 1 = normal paw movement to 4 = complete loss of movement with gait defect; settings: for motor function score: bupivacaine 8, conjugate 10/11/12 32/24/48 mg/kg
Protocol: (§2) After SD rats inhale anesthesia (isoflurane), an incision of about 1 cm in length from the proximal end of the pelma to the toe is made: after the skin and fascia are cut, the plantar muscle is picked up with an ophthalmic forceps and cut longitudinally (maintaining the starting and ending point and attachment of muscles); pressing is carried out for hemostasis, physiological saline and test drugs are injected into the muscles of animal's legs, and then the pain threshold detection is performed by the hot plate method. Within 24 hours after the model is successful, the rats develop significant hyperalgesia. Qualified rats are randomly divided into 5 groups, 6 rats in each group, which are labeled as groups G1, G2, G3, G4 and G5, respectively. The plantar subcutaneous injection method for administration is used, and the grouping information of the experimental animals is shown in Table 8.
Motor block (four-level score): The exercise condition of each group of rats is evaluated by the motor block four-level scoring method. The scoring criteria are: paws can be dorsiflexed, stretched, valgus and other normal exercises, scored by 1 point; paws can be dorsiflexed, bendable or after the adduction, although the paws can be stretched, the stretching ability is weakened, scored by 2 points; the paws can perform dorsiflexion, but no longer has the ability to stretch, scored by 3 points; the paws completely lose the ability of dorsiflexion, curling and stretching, and the rats produce a gait defect, scored by 4 points. The time point for measuring the motor block score is before administration, and 0.5 h, 1 h, 2 h, 4 h, 6 h, 8 h, 12 h, and 24 h after administration.

[4] = system: SD rats; experiment: Hot plate paw withdrawal time, rat plantar incision model (Example 31); type: in vivo
Protocol: as §2
as §1, with “the hot plate, the other hind” for “the hot plate. The other hind”, “s, the paws should be” for “s, the rat should be”, “8 h, 12 h,” for “8 h, 10 h, 12 h,”

[5] = 0 h (after surgery, before administration), bupivacaine 8, conjugate 10/11/12 32/24/48 mg/kg
[6] = bupivacaine 8, conjugate 10/11/12 32/24/48 mg/kg
[7] = conjugate 10/11/12 at 32/24/48 mg/kg

“8-Arm-PEG-Bupivacaine, 20K [bupivacaine conjugate 11]” was tested, and the “hot plate paw withdrawal time” value ([1]; 0.5 h after direct injection around sciatic nerve) was 9.60 s, the “hot plate paw withdrawal time” value ([1]; 2 h after direct injection around sciatic nerve) was 5.02 s and the “hot plate paw withdrawal time” value ([1]; 4 h after direct injection around sciatic nerve) was 6.65 s. For the same substance, the “hot plate paw withdrawal time” value ([1]; 6 h after direct injection around sciatic nerve) was 6.44 s, the “hot plate paw withdrawal time” value ([1]; 8 h after direct injection around sciatic nerve) was 3.69 s and the “hot plate paw withdrawal time” value ([1]; 10 h after direct injection around sciatic nerve) was 3.24 s. For the same substance, the “hot plate paw withdrawal time” value ([1]; 12 h after direct injection around sciatic nerve) was 2.62 s, the “hot plate paw withdrawal time” value ([1]; 24 h after direct injection around sciatic nerve) was 3.77 s and the “time after administration at which hot plate paw withdrawal time is significantly higher than vehicle group” value ([1]; conjugate 10/11/12 at 32/24/48 mg/kg, direct injection) was no more than 6 h. For the same substance, the “time the analgesic effect could reach” value ([1]; conjugate 10 at 32 mg/kg, conjugate 11 at 24 mg/kg) was 6 h, the “hot plate paw withdrawal time” value ([1]; l h after direct injection around sciatic nerve) was 9.99 s and the “hot plate paw withdrawal time” value [2, 5] was 2.14 s. The “hot plate paw withdrawal time” value ([2]; 0.5 h after intramuscular injection around sciatic nerve, bupivacaine 8, conjugate 10/11/12 32/24/48 mg/kg) was 7.43 s, the “hot plate paw withdrawal time” value ([2]; 1 h after intramuscular injection around sciatic nerve, bupivacaine 8, conjugate 10/11/12 32/24/48 mg/kg) was 8.49 s and the “hot plate paw withdrawal time” value ([2]; 2 h after intramuscular injection around sciatic nerve, bupivacaine 8, conjugate 10/11/12 32/24/48 mg/kg) was 9.10 s. The “hot plate paw withdrawal time” value ([2]; 4 h after intramuscular injection around sciatic nerve, bupivacaine 8, conjugate 10/11/12 32/24/48 mg/kg) was 8.31 s, the “hot plate paw withdrawal time” value ([2]; 6 h after intramuscular injection around sciatic nerve, bupivacaine 8, conjugate 10/11/12 32/24/48 mg/kg) was 7.10 s and the “hot plate paw withdrawal time” value ([2]; 8 h after intramuscular injection around sciatic nerve, bupivacaine 8, conjugate 10/11/12 32/24/48 mg/kg) was 1.97 s. The “hot plate paw withdrawal time” value ([2]; 12 h after intramuscular injection around sciatic nerve, bupivacaine 8, conjugate 10/11/12 32/24/48 mg/kg) was 2.71 s, the “hot plate paw withdrawal time” value ([2]; 24 h after intramuscular injection around sciatic nerve, bupivacaine 8, conjugate 10/11/12 32/24/48 mg/kg) was 2.76 s and the “hot plate paw withdrawal time” value ([2]; before surgery, bupivacaine 8, conjugate 10/11/12 32/24/48 mg/kg (as bupivacaine)) was 5.15 s. The “time after administration at which hot plate paw withdrawal time is significantly higher than vehicle group” value [2, 6] was no more than 6 h, the “time the analgesic effect can reach” value [2, 7] was no less than 6 h and the motor function score ([3]; 0 h (before administration)) was 1 ± 0. It also gave a motor function score ([3]; 0.5 h) of 1 ± 0, a motor function score ([3]; 1 h) of 1 ± 0 and a motor function score ([3]; 2 h) of 1 ± 0. The motor function score ([3]; 4 h) was 1 ± 0, the motor function score ([3]; 6 h) was 1 ± 0 and the motor function score ([3]; 8 h) was 1 ± 0. For the same substance, the motor function score ([3]; 12 h) was 1 ± 0, the motor function score ([3]; 24 h) was 1 ± 0 and the “effect on motor function of SD rats” value [3, 7] was “does not affect the motor function”. For the same substance, the “hot plate paw withdrawal time” value [4, 5] was 1.26 s, the “hot plate paw withdrawal time” value ([4]; 0.5 h after plantar subcutaneous injection, bupivacaine 8, conjugate 10/11/12 32/24/48 mg/kg) was 7.43 s and the “hot plate paw withdrawal time” value ([4]; 1 h after plantar subcutaneous injection, bupivacaine 8, conjugate 10/11/12 32/24/48 mg/kg) was 8.49 s. For the same substance, the “hot plate paw withdrawal time” value ([4]; 2 h after plantar subcutaneous injection, bupivacaine 8, conjugate 10/11/12 32/24/48 mg/kg) was 9.10 s, the “hot plate paw withdrawal time” value ([4]; 4 h after plantar subcutaneous injection, bupivacaine 8, conjugate 10/11/12 32/24/48 mg/kg) was 7.91 s and the “hot plate paw withdrawal time” value ([4]; 6 h after plantar subcutaneous injection, bupivacaine 8, conjugate 10/11/12 32/24/48 mg/kg) was 8.65 s. For the same substance, the “hot plate paw withdrawal time” value ([4]; 8 h after plantar subcutaneous injection, bupivacaine 8, conjugate 10/11/12 32/24/48 mg/kg) was 2.19 s, the “hot plate paw withdrawal time” value ([4]; 12 h after plantar subcutaneous injection, bupivacaine 8, conjugate 10/11/12 32/24/48 mg/kg) was 1.89 s and the “hot plate paw withdrawal time” value ([4]; 24 h after plantar subcutaneous injection, bupivacaine 8, conjugate 10/11/12 32/24/48 mg/kg) was 1.56 s. The “hot plate paw withdrawal time” value ([4]; base value before surgery, bupivacaine 8, conjugate 10/11/12 32/24/48 mg/kg (as bupivacaine)) was 4.97 s, the “time after administration at which hot plate paw withdrawal time is significantly higher than vehicle group” value [4, 6] was no more than 6 h and the “time the analgesic effect can reach” value [4, 7] was no less than 6 h.
